Data on three compounds can be found in ChEMBL document CHEMBL5143574, “Unraveling the anti-virulence potential and antifungal efficacy of 5-aminotetrazoles using the zebrafish model of disseminated candidiasis” (Eur J Med Chem, 2022).

Active and inactive are the calls of the source. No cut-off for these calls is given here.

Data set [1] in a line: Reduction of nystatin resistance against Candida albicans SC5314 assessed as nystatin MIC at 5 to 10 uM measured after consecutive treatment with nystatin for 12 days. The format is functional. Particulars: SC5314, 288 h, dose 5-10 µM.
The subject of data set [2] is Candida albicans. Kind of data set: Indifferent antifungal activity against Candida albicans SC5314 assessed as fractional inhibitory concentration index incubated for 24 hrs in RPMI medium in presence of nystatin by checkerboard assay. The format is functional.
In data set [3] the test system is Candida albicans. Briefly: Anti-virulence activity against 120-140 RFP expressing cells of Candida albicans M137 infected in hind brain of zebra fish embryo disseminated candidiasis model assessed as embryo survival rate at 10 uM in presence of 0.25 ug/ml nystatin measured at 120 hpf. It counts as functional.
Data set [4] concerns Candida albicans. Kind of data set: Anti-virulence activity against Candida albicans SC5314 assessed as inhibition of fungal filamentation by measuring reduction of hyphae formation in RPMI medium at 1.3 uM incubated for 3 to 5 days by stereomicroscopic analysis. The format is functional, organism-based. The conditions noted are these: time 3-5 day.
Data set [5] concerns Candida albicans. Kind of data set: Anti-virulence activity against Candida albicans SC5314 assessed as inhibition of fungal filamentation by measuring reduction of hyphae formation in Spider medium at 2.5 uM incubated for 3 to 5 days by stereomicroscopic analysis. The format is functional. The conditions noted are these: time 3-5 day.
The subject of data set [6] is Candida albicans. Briefly: Anti-virulence activity against Candida albicans SC5314 assessed as inhibition of fungal filamentation by measuring reduction of hyphae formation in Lee medium at 1.3 uM incubated for 3 to 5 days by stereomicroscopic analysis. The format is functional, organism-based. Particulars: time 3-5 day.
The test system of data set [7] is Candida albicans. Briefly: Anti-virulence activity against Candida albicans SC5314 assessed as inhibition of fungal filamentation by measuring reduction in hyphae formation in YPS medium upto 10 uM incubated for 3 to 5 days by stereomicroscopic analysis. The conditions noted are these: time 3-5 day. It counts as functional, organism-based.
For data set [8], the system named is Candida albicans. Kind of data set: Anti-virulence activity against Candida albicans SC5314 assessed as inhibition of fungal filamentation by measuring reduction in hyphae formation in SLAD medium upto 10 uM incubated for 3 to 5 days by stereomicroscopic analysis. The conditions noted are these: time 3-5 day. The format is functional, organism-based.
In data set [9] the test system is Candida albicans. Briefly: Anti-virulence activity against 120-140 RFP expressing cells of Candida albicans M137 expressing infected in hind brain of zebra fish embryo disseminated candidiasis model assessed as inhibition of fungal filamentation by measuring reduction of hyphae formation at 10 uM in presence of 1 ug/ml nystatin measured at 120 hpf. On the set-up: scale not given: the % may be the effect or the level left. The format is functional.

Data set [10] concerns Candida albicans. Briefly: Anti-virulence activity against 120-140 RFP expressing cells of Candida albicans M137 infected in hind brain of zebra fish embryo disseminated candidiasis model assessed as inhibition of fungal filamentation by measuring reduction of fungal hyphae formation at 10 uM in presence of 0.25 ug/ml nystatin measured at 120 hpf. The format is functional.

Data set [11] concerns Candida albicans. Briefly: Anti-virulence activity against 53-75 RFP expressing cells of Candida albicans M137 in hind brain of zebra fish embryo disseminated candidiasis model assessed as inhibition of fungal filamentation by measuring reduction of hyphae formation in the hind brain at 2.5 to 10 uM treated at 1 hr post-infection and measured on day 4 post infection by fluorescence microscopy. On the set-up: scale not given: the % may be the effect or the level left. Particulars: dose 2.5-10 µM, time 4 day. The format is functional.

Data set [12] relates to Candida albicans. Kind of data set: Anti-virulence activity against Candida albicans SC5314 assessed as inhibition of fungal filamentation by measuring reduction of hyphae formation in YPS medium at 1.3 uM incubated for 3 to 5 days by stereomicroscopic analysis. It counts as functional, organism-based. Particulars: time 3-5 day.
In data set [13] the test system is Candida albicans. Briefly: Anti-virulence activity against Candida albicans SC5314 assessed as inhibition of fungal filamentation by measuring reduction in hyphae formation in YPS plus uridine medium upto 10 uM incubated for 3 to 5 days by stereomicroscopic analysis. Particulars: time 3-5 day. It counts as functional, organism-based.
In data set [14] the test system is Candida albicans. Kind of data set: Anti-virulence activity 53-75 RFP expressing cells of Candida albicans M137 in hind brain of zebra fish embryo disseminated candidiasis model assessed as reduction in mortality by measuring embryo survival rate treated at 1 hr post-infection and measured at 48 hrs post infection (reference value: 40%). The format is functional.

Data set [15] can be described thus: Toxicity in zebrafish embryos assessed as toxic responses at 200 uM treated at 6 hpf and measured at 120 hpf by stereomicroscopic analysis. Particulars: in vivo, 24 h. Details: species or system Danio rerio.
The subject of data set [16] is Candida albicans. Kind of data set: Anti-virulence activity against Candida albicans SC5314 assessed as inhibition of fungal filamentation by measuring reduction of hyphae formation in SLAD medium at 1.3 uM incubated for 3 to 5 days by stereomicroscopic analysis. The format is functional, organism-based. The conditions noted are these: time 3-5 day.
For data set [17], the system named is Candida albicans. Briefly: Anti-virulence activity against 120-140 RFP expressing cells of Candida albicans M137 infected in hind brain of zebra fish embryo disseminated candidiasis model assessed as embryo survival rate upto 10 uM in presence of 0.13 to 1 ug/ml nystatin measured at 120 hpf. The format is functional. Particulars: up to 10 µM.
Data set [18] concerns Candida albicans. Kind of data set: Anti-virulence activity against 53-75 RFP expressing cells of Candida albicans M137 in hind brain of zebra fish embryo disseminated candidiasis model assessed as reduction in mortality by measuring embryo survival rate treated at 1 hr post-infection and measured on day 4 post infection relative to control. The conditions noted are these: time 4 day. The format is functional.

The test system of data set [19] is Candida albicans. Kind of data set: Anti-virulence activity against Candida albicans SC5314 assessed as inhibition of fungal filamentation by measuring reduction in hyphae formation in GlcNAc medium upto 10 uM incubated for 3 to 5 days by stereomicroscopic analysis. The format is functional, organism-based. The conditions noted are these: time 3-5 day.
In data set [20] the test system is Candida albicans. Briefly: Anti-virulence activity against Candida albicans SC5314 assessed as inhibition of fungal filamentation by measuring reduction of hyphae formation in RPMI medium upto 10 uM incubated for 3 to 5 days by stereomicroscopic analysis. It counts as functional, organism-based. Particulars: time 3-5 day.
The subject of data set [21] is Candida albicans. Briefly: Anti-virulence activity against Candida albicans SC5314 assessed as inhibition of fungal filamentation by measuring reduction of hyphae formation in YPS plus uridine medium at 1.3 uM incubated for 3 to 5 days by stereomicroscopic analysis. The format is functional, organism-based. Particulars: time 3-5 day.
Data set [22] has as its system Candida albicans. Briefly: Anti-virulence activity against Candida albicans SC5314 assessed as inhibition of fungal filamentation by measuring reduction of hyphae formation in SLAD medium at 2.5 uM incubated for 3 to 5 days by stereomicroscopic analysis. It counts as functional. The conditions noted are these: time 3-5 day.
The subject of data set [23] is Candida albicans. Briefly: Anti-virulence activity against 120-140 RFP expressing cells of Candida albicans M137 infected in hind brain of zebra fish embryo disseminated candidiasis model assessed as embryo mortality at 10 uM measured at 120 hpf. The format is functional.
Data set [24] relates to Candida albicans. Briefly: Anti-virulence activity against Candida albicans SC5314 assessed as inhibition of fungal filamentation by measuring reduction in hyphae formation in Spider medium upto 10 uM incubated for 3 to 5 days by stereomicroscopic analysis. It counts as functional, organism-based. The conditions noted are these: time 3-5 day.
Data set [25] can be described thus: Toxicity against zebrafish embryo infected with 53-75 RFP expressing cells of Candida albicans M137 assessed as mortality at 2.5 to 10 uM treated at 1 hr post-infection and measured on day 4 post-infection. On the set-up: species or system Danio rerio. The conditions noted are these: 96 h, dose 2.5-10 µM, time 4 day.
The test system of data set [26] is Candida albicans. Kind of data set: Anti-virulence activity against Candida albicans SC5314 assessed as inhibition of fungal filamentation by measuring reduction of hyphae formation in YPS medium at 2.5 uM incubated for 3 to 5 days by stereomicroscopic analysis. The format is functional. The conditions noted are these: time 3-5 day.
A short description of data set [27]: Toxicity in zebrafish embryos assessed as mortality treated at 6 hpf and measured at 120 hpf by stereomicroscopic analysis. On the set-up: species or system Danio rerio. Particulars: in vivo.
Data set [28] concerns Candida albicans. Kind of data set: Antifungal activity against Candida albicans SC5314 assessed as inhibition of fungal growth incubated for 24 hrs by broth microdilution assay. It counts as functional.
The test system of data set [29] is Candida albicans. Briefly: Anti-virulence activity against Candida albicans SC5314 assessed as inhibition of fungal filamentation by measuring reduction of hyphae formation in GlcNAc medium at 2.5 uM incubated for 3 to 5 days by stereomicroscopic analysis. The format is functional. The conditions noted are these: time 3-5 day.
For data set [30], the system named is Candida albicans. Briefly: Anti-virulence activity against 53-75 RFP expressing cells of Candida albicans M137 in hind brain of zebra fish embryo disseminated candidiasis model assessed as reduction in mortality by measuring embryo survival rate treated at 1 hr post-infection and measured on day 4 post infection (reference value: 10%). The format is functional. The conditions noted are these: time 4 day.

In data set [31] the test system is Candida albicans. Briefly: Anti-virulence activity against Candida albicans SC5314 assessed as inhibition of fungal filamentation by measuring reduction in hyphae formation in Lee medium upto 10 uM incubated for 3 to 5 days by stereomicroscopic analysis. It counts as functional, organism-based. The conditions noted are these: time 3-5 day.
Data set [32] deals with Candida albicans. Kind of data set: Anti-virulence activity against Candida albicans SC5314 assessed as inhibition of fungal filamentation by measuring reduction of hyphae formation in GlcNAc medium at 1.3 uM incubated for 3 to 5 days by stereomicroscopic analysis. It counts as functional, organism-based. Particulars: time 3-5 day.
In data set [33] the test system is Candida albicans. Kind of data set: Anti-virulence activity against Candida albicans SC5314 assessed as inhibition of fungal filamentation by measuring reduction of hyphae formation in Spider medium at 1.3 uM incubated for 3 to 5 days by stereomicroscopic analysis. It counts as functional, organism-based. The conditions noted are these: time 3-5 day.
A short description of data set [34]: Cardiotoxicity in zebrafish embryos assessed as pericardial edema at 0.25 uM treated at 6 hpf and measured at 120 hpf by stereomicroscopic analysis. It counts as toxicity, Danio rerio.
The nature of data set [35]: Hepatotoxicity in zebrafish embryos assessed as liver failure by measuring necrotic and decreased liver with non-resorbed yolk at 0.25 uM treated at 6 hpf and measured at 120 hpf by stereomicroscopic analysis. It counts as toxicity, tissue-based, Danio rerio. The conditions noted are these: in vivo.
The test system of data set [36] is Candida albicans. Briefly: Anti-virulence activity against 53-75 RFP expressing cells of Candida albicans M137 in hind brain of zebra fish embryo disseminated candidiasis model assessed as inhibition of fungal filamentation by measuring reduction of hyphae formation in the hind brain at 10 uM treated at 1 hr post-infection and measured on day 4 post infection by fluorescence microscopy. The conditions noted are these: M137, 96 h, time 4 day. The format is functional.

Consider `Nc1nnnn1CCC12CC3CC(CC(C3)C1)C2`, for which the minimum inhibitory concentration (MIC) in data set [1] is 1 µg/mL; in [28], over 200 µM. Further, the “fractional inhibitory concentration index (FICI)” value in [2] is on record as 1. In addition, the survival at 10 µM in [3] is at most 30%. Further, the result in data set [4], in data set [6], in [7], in [8], in data set [12] and in data set [13] was Active. For the same compound, the result in [16], in [19], in data set [20], in data set [21], in data set [24] and in [31] was Active. The result in data set [32] and in [33] was Active. The inhibition at 2.5 µM in [5], in [22], in data set [26] and in [29] was 100% in each case. In addition, the Activity in [9] is on record as 100%; in data set [11], 100%; in data set [15], “Non-Toxic”; in [25], “Non-Toxic”. Moreover, in data set [10], the inhibition in vivo at 10 µM is at most 30%. For the same compound, the Survival in data set [14] is reported as 50%; in data set [17], “<=80%”; in data set [30], 70%. Moreover, the “fold change (FC)” value in [18] is given as 7. Also, in [23], the mortality at 10 µM stood at 80%. Further, in data set [27], the LC50 is over 200 µM.
For `CCC(C)n1ncn(-c2ccc(N3CCN(c4ccc(OCC5COC(Cn6cncn6)(c6ccc(Cl)cc6Cl)O5)cc4)CC3)cc2)c1=O` (stereo not drawn) [ITRACONAZOLE], the Activity entry in [34] and in data set [35] was “Toxic” throughout.
For `c1ccc(Nc2nnnn2CCC23CC4CC(CC(C4)C2)C3)cc1`, the result in [4], in data set [6], in data set [7], in data set [8], in [12] and in [13] was Active. For the same compound, the result in [16], in [19], in data set [20], in data set [21], in [24] and in data set [31] was Active. In addition, the result in data set [32] and in [33] was Active. The inhibition in vivo at 10 µM in data set [36] is 100%. Further, the Activity entry in data set [25] is on record as “Non-Toxic”. In data set [27], the LC50 is over 200 µM. Further, in data set [28], the MIC is over 200 µM.
